Measured values: patent publication US4552872A, “Penetrating topical pharmaceutical compositions containing corticosteroids” (priority 1984, dated 1985)

What was measured:
[1] = Percutaneous penetration study, Franz diffusion apparatus, human skin (*); type: in vitro ADME; settings: Example 8; for reduction of penetration on addition of the proscribed compound, in words: compared with octanoic acid (reduces penetration by 50%)
Protocol: The following Penetration Studies were carried out in the following manner. […] A normal saline solution is added to the lower diffusion cell, abutting the subcutaneous side of the skin. The test composition (comprising a solution of active or actives added to the carrier at the indicated formulation in a conventional manner by thoroughly mixing) is added to the diffusion cell abutting the epidermal side of the skin at the levels indicated.
This cell assembly is kept at a constant temperature of about 31° C. At appropriate or desired intervals (these are the time designations given in the following examples) each diffusion cell assembly is opened and the diffusate from the cell abutting the subcutaneous side of the skin is withdrawn. Drug actives in a diffusate is measured using standard analytical techniques. Each trial is run on a separate sample of skin.
All ratios represented by A/B, or A/B/C, and all percentages, are by weight. The compounds described as C12-18 OH are the straight chain, saturated, normal alcohols. EtOH is ethanol. The term mcg=microgram.

[2] = test system: dermatitis; test: Topical treatment of dermatitis in a human, composition of Example 32; type: in vivo; settings: 5 mg/cm^2 of skin three times daily for five days; noted after 48 hours
Protocol: The above composition is applied at the afflicted situs of a human afflicted with dermatitis at a rate of 5 mg of composition/cm^2 of skin three times daily for a period of five days.

[3] = compared with hydrocortisone; cited from earlier work

Row | reduction of penetration on addition of the proscribed compound, in words [1] | SMILES | reduction of inflammation [2] | other results
1 |  | CC1(C)O[C@@H]2C[C@H]3[C@@H]4CCC5=CC(=O)C=C[C@]5(C)[C@@]4(F)[C@@H](O)C[C@]3(C)[C@]2(C(=O)CO)O1 [triamcinolone, Triamcinolone acetonide] | Substantially similar results | 
2 |  | CC1(C)O[C@@H]2C[C@H]3[C@@H]4C[C@H](F)C5=CC(=O)C=C[C@]5(C)[C@@]4(F)[C@@H](O)C[C@]3(C)[C@]2(C(=O)CO)O1 [fluocinolone, acetonide, Fluocinolone acetonide] | Substantially similar results | 
3 | Substantially similar results | CCCCCCCCCC(=O)O [decanoic acid] |  | 
4 | Substantially similar results | CCCCCCCCCCCCCCCCO [cetyl alcohol] |  | 
5 |  | C[C@]12C=CC(=O)C=C1CC[C@@H]1[C@@H]2[C@@H](O)C[C@@]2(C)[C@H]1CC[C@]2(O)C(=O)CO [prednisolone] |  | change of mineralocorticoid effects by introduction of a double bond at the 1,2 position into hydrocortisone [3]: reducing mineralo corticoid effects
6 |  | CCCCCCCC(=O)O [octanoic acid] |  | reduction of penetration on addition of the proscribed compound ([1]; 1% Triamcinolone in Propylene Glycol + 2% C14 OH, human skin, 0-72 hrs.): 50%
7 |  | CCCCC(=O)O[C@]1(C(=O)CO)[C@@H](C)C[C@H]2[C@@H]3CCC4=CC(=O)C=C[C@]4(C)[C@@]3(F)[C@@H](O)C[C@@]21C [betamethasone valerate] | Substantially similar results | 
8 |  | COc1c(C(=O)OCC(=O)[C@@]23OC(C)(C)O[C@@H]2C[C@H]2[C@@H]4CCC5=CC(=O)C=C[C@]5(C)[C@@]4(F)[C@@H](O)C[C@@]23C)cc2ccccc2c1Cc1c(OC)c(C(=O)OCC(=O)[C@@]23OC(C)(C)O[C@@H]2C[C@H]2[C@@H]4CCC5=CC(=O)C=C[C@]5(C)[C@@]4(F)[C@@H](O)C[C@@]23C)cc2ccccc12 [flupamesone] | Substantially similar results | 

Row | SMILES | reduction of penetration on addition of the proscribed compound, in words [1] | reduction of inflammation [2] | other results
9 | CCCCCCCCCCCCCCCCCCO [stearyl alcohol] | Substantially similar results |  | 
